Test results taken from patent US20210369853A1, “TARGETED PROTEASE DEGRADATION PLATFORM” (EUBULUS BIOTHERAPEUTICS INC., priority 2018, published 2021).
Where two headings read alike, the source gives them in different places.

How the values were obtained:
Type in all cases: cell-based
[1] = test system: Human Acute Myelomonocytic Leukemia HL-60; assay: Cell proliferation experiment (Alarm blue, 72 h, EC50); conditions: HL-60 cells
Summary of the method: (§1)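 Duplicate wells per concentration, 5-fold dilution series, 72 h continuous exposure of log-phase cells; read-out Alamar blue fluorescence, EC50 derived by curve fit with minimum, maximum and slope terms.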

[2] = test system: Human Monocytic Leukemia MV4-11; assay: as above; conditions: Homo sapiens
Summary of the method: as §1

HUVEC [3] = assay: Cell proliferation experiment (EC50), HUVEC; conditions: Homo sapiens
PBMC [4] = assay: Cell proliferation experiment (EC50), PBMC
Human Colon Cancer HT-29 = assay: Cell proliferation experiment (Alarm blue, 72 h, EC50); conditions: Homo sapiens; HT-29 cells
Summary of the method: as §1

[5] = test system: Human Glioma Cells U-87 MG; assay: as above; conditions: Homo sapiens; U-87MG cells
Summary of the method: as §1

[6] = test system: Human Small Cell Lung Cancer NCI-H82; assay: as above; conditions: Homo sapiens, NCI-H82; NCIH82 cells
Summary of the method: as §1

Daudi = assay: Cell proliferation experiment (EC50), Daudi; conditions: Homo sapiens; Daudi cells
[7] = test system: Human Acute Lymphoblastic Leukemia Cells MOLT-4; assay: Cell proliferation experiment (Alarm blue, 72 h, EC50); conditions: MOL4-4 cells
Summary of the method: as §1

[8] = test system: Human Breast Cancer MDA-MB-231; assay: as above; conditions: Homo sapiens; MDA-MB-231 cells
Summary of the method: as §1

[9] = test system: Human Colon Cancer HCT-116; assay: as above; conditions: Homo sapiens, HCT-116; HCT116 cells
Summary of the method: as §1

[10] = test system: Human Monocytic Leukemia THP-1; assay: as above; conditions: THP-1 cells
Summary of the method: as §1

[11] = test system: Human cervical adenocarcinoma cells Hela; assay: as above; conditions: Homo sapiens
Summary of the method: as §1

BRD4 = target: T1, BRD4 (Homo sapiens, UniProt O60885); assay: Western blot, protein degradation (DC50)
T1 construct: endogenous in cells
Summary of the method: (§2)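 Cells treated with compound, lysed in RIPA and resolved by SDS-PAGE (4%-12%); PVDF blots probed with primary antibody overnight at 4° C, then secondary antibody, and developed with ECL. Band intensities quantified by densitometry to give degradation.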

PLK1 = target: T2, PLK1 (Homo sapiens, UniProt P53350); assay: Western blot, protein degradation (DC50)
T2 construct: endogenous in cells
Summary of the method: as §2

HUVEC [12] = assay: Cell proliferation experiment (EC50), HUVEC; conditions: Homo sapiens; remark: listed apart in the source
PBMC [13] = assay: Cell proliferation experiment (EC50), PBMC; remark: listed apart in the source
[14] = 24 h, western blot, read-out: BRD4 DC50 (24 h)
[15] = 24 h, western blot, read-out: PLK1 DC50 (24 h)
[16] = 6 h, western blot, read-out: BRD4 DC50 (6 h)
[17] = 6 h, western blot, read-out: PLK1 DC50 (6 h)

T2 sequence (P53350 whole entry): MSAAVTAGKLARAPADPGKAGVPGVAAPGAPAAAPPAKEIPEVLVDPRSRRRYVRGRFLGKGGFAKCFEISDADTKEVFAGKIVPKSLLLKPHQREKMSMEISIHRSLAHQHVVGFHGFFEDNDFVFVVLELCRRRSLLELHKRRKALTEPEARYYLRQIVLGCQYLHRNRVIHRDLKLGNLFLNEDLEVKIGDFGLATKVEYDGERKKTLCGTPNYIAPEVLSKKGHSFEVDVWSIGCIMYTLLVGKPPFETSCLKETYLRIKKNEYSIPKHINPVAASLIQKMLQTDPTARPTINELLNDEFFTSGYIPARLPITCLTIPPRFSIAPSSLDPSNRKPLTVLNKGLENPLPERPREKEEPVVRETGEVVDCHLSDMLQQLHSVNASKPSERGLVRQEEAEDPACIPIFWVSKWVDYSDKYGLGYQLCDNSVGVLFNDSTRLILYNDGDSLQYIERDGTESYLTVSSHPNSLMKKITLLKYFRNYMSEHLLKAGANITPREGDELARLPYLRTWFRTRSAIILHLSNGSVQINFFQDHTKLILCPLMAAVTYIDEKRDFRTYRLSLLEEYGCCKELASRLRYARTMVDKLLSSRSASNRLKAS

EC50 ([2]; MV4-11, MV4;11 cells) | EC50 (Daudi) | SMILES | EC50 [1] | EC50 (Human Colon Cancer HT-29) | EC50 [5] | EC50 [6] | EC50 [7] | EC50 [8] | EC50 ([2]; MV4;11 cells) | EC50 [10] | EC50 [11] | also measured
100 to 1000 nM |  | O=C1CCC(N2Cc3c(NC(=O)CCOCCOCCOCCNCCOCCNC(=O)[C@]4(Cc5cccc(Nc6nccs6)n5)CC[C@@H](Oc5cccc(Cl)c5F)CC4)cccc3C2=O)C(=O)N1 (stereo partly shown) [UB-180804] | > 1000 nM |  |  |  |  |  |  |  |  | EC50 (HUVEC [3]): > 1000 nM; EC50 (PBMC [4]): > 1000 nM
100 to 1000 nM | 100 to 1000 nM | CC[C@@H]1C(=O)N(C)c2cnc(Nc3ccc(C(=O)NC4CCN(CCOCCN(CCO)CC(=O)Nc5cccc6c5CN(C5CCC(=O)NC5=O)C6=O)CC4)cc3OC)nc2N1C1CCCC1 (stereo partly shown) [UB-180849] |  | 100 to 1000 nM | 100 to 1000 nM | 100 to 1000 nM |  |  |  |  |  | 
100 to 1000 nM | 100 to 1000 nM | CC[C@@H]1C(=O)N(C)c2cnc(Nc3ccc(C(=O)NCCOCCOCCOCCNCCCc4cccc5c4CN(C4CCC(=O)NC4=O)C5=O)cc3OC)nc2N1C1CCCC1 (stereo partly shown) [UB-180847] |  | 100 to 1000 nM | 100 to 1000 nM | 100 to 1000 nM |  |  |  |  |  | 
 |  | CC[C@@H]1C(=O)N(C)c2cnc(Nc3ccc(C(=O)NCc4cn(CCNCCOCC(=O)Nc5cccc6c5CN(C5CCC(=O)NC5=O)C6=O)nn4)cc3OC)nc2N1Cc1ccc(Cl)s1 (stereo partly shown) [UB-180720] | 100 to 1000 nM | 100 to 1000 nM | 100 to 1000 nM | 100 to 1000 nM | 100 to 1000 nM | 100 to 1000 nM | < 10 nM | 100 to 1000 nM | 100 to 1000 nM | EC50 [9]: 100 to 1000 nM; DC50 (BRD4; 24 h, read-out: BRD4 DC50 (nM) (24 h)): < 10 nM; DC50 (PLK1; 24 h, read-out: PLK1 DC50 (nM) (24 h)): < 10 nM
 |  | CC[C@@H]1C(=O)N(C)c2cnc(Nc3ccc(C(=O)NCCOCCOCCOCCNCCCCC(=O)Nc4cccc5c4CN(C4CCC(=O)NC4=O)C5=O)cc3OC)nc2N1Cc1ccc(Br)cc1 (stereo partly shown) [UB-180667] | 100 to 1000 nM | 100 to 1000 nM | 100 to 1000 nM | 100 to 1000 nM | 100 to 1000 nM | 100 to 1000 nM | 10 to 100 nM |  |  | DC50 (BRD4; [14]): < 10 nM; DC50 (PLK1; [15]): < 10 nM
 |  | CC[C@@H]1C(=O)N(C)C2CNC(Nc3ccc(C(=O)NCCCNCCCC(=O)Nc4cccc5c4CN(C4CCC(=O)NC4=O)C5=O)cc3OC)NC2N1Cc1ccc(Cl)s1 (stereo partly shown) [UB-180678] | 100 to 1000 nM | 100 to 1000 nM | 100 to 1000 nM | 100 to 1000 nM | 100 to 1000 nM | 100 to 1000 nM | 10 to 100 nM |  |  | DC50 (BRD4; [16]): < 10 nM; DC50 (PLK1; [17]): 100 to 1000 nM; EC50 (HUVEC [12]): 100 to 1000 nM; EC50 (PBMC [13]): 100 to 1000 nM
< 10 nM | 100 to 1000 nM | CC[C@@H]1C(=O)N(C)c2cnc(Nc3ccc(C(=O)NCCOCCOCCOCCNCC#Cc4cccc5c4CN(C4CCC(=O)NC4=O)C5=O)cc3OC)nc2N1C1CCCC1 (stereo partly shown) [UB-180846] |  | 100 to 1000 nM | 100 to 1000 nM | 100 to 1000 nM |  |  |  |  |  | DC50 (BRD4; 6 h, read-out: BRD4 DC50 (6 h)): 10 to 100 nM
 |  | CC[C@@H]1C(=O)N(C)c2cnc(Nc3ccc(C(=O)NC4CCN(CCOCCNCC(=O)Nc5cccc6c5CN(C5CCC(=O)NC5=O)C6=O)CC4)cc3OC)nc2N1C1CCCC1 (stereo partly shown) [UB-180699] | 100 to 1000 nM | 100 to 1000 nM | 100 to 1000 nM | 100 to 1000 nM | 100 to 1000 nM | > 1000 nM | 10 to 100 nM | 100 to 1000 nM | 100 to 1000 nM | DC50 (BRD4; [14]): < 10 nM; DC50 (PLK1; [15]): < 10 nM

SMILES | EC50 ([2]; MV4-11, MV4;11 cells) | EC50 (Daudi) | EC50 [1] | EC50 (Human Colon Cancer HT-29) | EC50 [5] | EC50 [6] | EC50 [7] | EC50 [8] | EC50 ([2]; MV4;11 cells) | EC50 [10] | EC50 [11] | also measured
CC[C@@H]1C(=O)N(C)c2cnc(Nc3ccc(C(=O)NCCCNCCCCCC(=O)Nc4cccc5c4CN(C4CCC(=O)NC4=O)C5=O)cc3OC)nc2N1C1CCCC1 (stereo partly shown) [UB-180660] | 10 to 100 nM |  | 100 to 1000 nM | 100 to 1000 nM | 100 to 1000 nM | > 1000 nM |  | 100 to 1000 nM |  | 100 to 1000 nM | 100 to 1000 nM | EC50 [9]: 100 to 1000 nM; DC50 (BRD4; [16]): 10 to 100 nM; DC50 (PLK1; [17]): < 10 nM; EC50 (HUVEC [12]): > 1000 nM; EC50 (PBMC [13]): > 1000 nM
